Measured values published in patent US20050065206A1, “Skin preparation comprising a tocopherol derivative for external application” (priority 2001, published 2005).

What was measured:
[1] = system: skin removed from the back of a hairless mouse; assay: Evaluation of skin penetrability, amount of γ-tocopherol in the skin; assay type: in vitro ADME; settings: 4 hours at 37° C.; for amount of γ-tocopherol in the skin: 0.50 (mass %) in Dulbecco's MEM medium, HPLC, not added: 10
[2] = system: skin removed from the back of a hairless mouse; assay: Evaluation of skin penetrability, amount of α-tocopherol in the skin; assay type: in vitro ADME; settings: 4 hours at 37° C.; for amount of α-tocopherol in the skin: 0.50 (mass %) in Dulbecco's MEM medium, HPLC, not added: 10
[3] = system: keratinocytes of normal human epidermis; settings: final concentration 1 mM, 37° C. for 2 hours; not added: lower than detection limit
Protocol: The cells were harvested and spalled by freeze-thawing method. To this cell spall solution, 1), 2) or 3) was added to have a final concentration of 1 mM. The resulting solution was kept at 37° C. for 2 hours and then the amount of α-tocopherol liberated in the reaction solution was measured.

amount of γ-tocopherol in the skin [1] | change of the γ-tocopherol amount in the treated skin ([1]; 0.50 in medium) | amount of α-tocopherol in the skin [2] | amount of α-tocopherol liberated in the reaction solution [3] | change of the α-tocopherol amount in the treated skin ([2]; 0.50 in medium) | Structure (SMILES)
24 nmol/g of skin | significant increase |  |  |  | Cc1c(OC(=O)CN)cc2c(c1C)OC(C)(CCCC(C)CCCC(C)CCCC(C)C)CC2.Cl (stereo not shown)
 |  | 11 nmol/g of skin | 0.5 nmol/ml of cell suspension |  | CC(=O)Oc1c(C)c(C)c2c(c1C)CCC(C)(CCC[C@H](C)CCC[C@H](C)CCCC(C)C)O2 (stereo partly drawn) [α-Tocopherol acetate, reference compound]
11 nmol/g of skin |  |  |  |  | CC(=O)Oc1cc2c(c(C)c1C)OC(C)(CCCC(C)CCCC(C)CCCC(C)C)CC2 (stereo not shown) [γ-Tocopherol acetate, reference compound]
 |  | 24 nmol/g of skin |  | significant increase | Cc1c(C)c2c(c(C)c1OC(=O)CN)CCC(C)(CCCC(C)CCCC(C)CCCC(C)C)O2.Cl (stereo not shown)
